Experiments:
[1] = Cmax in male Sprague-Dawley rat at 10 mg/kg, po administered as single dose by LC-MS analysis; format: ADME, organism-based; set-up: route oral, dose 10 mg/kg; conditions: in vivo
[2] = Clearance in male Sprague-Dawley rat at 10 mg/kg, po administered as single dose by LC-MS analysis; format: ADME, organism-based; conditions: in vivo
Plasma = test: Antiplatelet activity in rabbit platelet-rich plasma assessed as inhibition of ADP-induced platelet aggregation preincubated for 5 mins followed by ADP addition measured every 1 min for up to 6 mins by microplate reader analysis; format: functional, cell-free; conditions: Oryctolagus cuniculus
[3] = Tmax in male Sprague-Dawley rat at 10 mg/kg, po administered as single dose by LC-MS analysis; format: ADME, organism-based; conditions: in vivo
CYP2A6 = biological target: T1, CYP2A6 (Homo sapiens, UniProt P11509); test: Inhibition of CYP2A6 in human liver microsomes at 10 uM using coumarin as substrate preincubated for 5 mins followed by NADPH generating system addition and measured after 120 mins by LC-MS/MS analysis relative to control; format: ADME; conditions: probe coumarin, time 125 min
T1 sequence (P11509 whole entry): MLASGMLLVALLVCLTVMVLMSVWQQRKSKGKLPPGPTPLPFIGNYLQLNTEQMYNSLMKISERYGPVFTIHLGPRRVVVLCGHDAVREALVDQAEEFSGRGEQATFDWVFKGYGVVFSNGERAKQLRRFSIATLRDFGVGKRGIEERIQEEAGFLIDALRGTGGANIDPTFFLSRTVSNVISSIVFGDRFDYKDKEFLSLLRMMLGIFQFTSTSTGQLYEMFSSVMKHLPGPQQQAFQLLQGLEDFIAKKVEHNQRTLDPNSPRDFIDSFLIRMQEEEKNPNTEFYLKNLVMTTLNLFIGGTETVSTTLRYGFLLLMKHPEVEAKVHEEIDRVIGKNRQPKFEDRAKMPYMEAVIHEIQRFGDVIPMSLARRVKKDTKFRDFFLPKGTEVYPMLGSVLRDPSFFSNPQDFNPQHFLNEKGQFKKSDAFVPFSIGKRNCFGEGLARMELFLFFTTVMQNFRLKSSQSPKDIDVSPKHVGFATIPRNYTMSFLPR

CYP2E1 = CYP2E1 (Homo sapiens, UniProt P05181); test: Inhibition of CYP2E1 in human liver microsomes at 10 uM using chlorzoxazone as substrate preincubated for 5 mins followed by NADPH generating system addition and measured after 120 mins by LC-MS/MS analysis relative to control; format: ADME; conditions: probe chlorzoxazone, time 125 min
Sequence of CYP2E1 (P05181 whole entry): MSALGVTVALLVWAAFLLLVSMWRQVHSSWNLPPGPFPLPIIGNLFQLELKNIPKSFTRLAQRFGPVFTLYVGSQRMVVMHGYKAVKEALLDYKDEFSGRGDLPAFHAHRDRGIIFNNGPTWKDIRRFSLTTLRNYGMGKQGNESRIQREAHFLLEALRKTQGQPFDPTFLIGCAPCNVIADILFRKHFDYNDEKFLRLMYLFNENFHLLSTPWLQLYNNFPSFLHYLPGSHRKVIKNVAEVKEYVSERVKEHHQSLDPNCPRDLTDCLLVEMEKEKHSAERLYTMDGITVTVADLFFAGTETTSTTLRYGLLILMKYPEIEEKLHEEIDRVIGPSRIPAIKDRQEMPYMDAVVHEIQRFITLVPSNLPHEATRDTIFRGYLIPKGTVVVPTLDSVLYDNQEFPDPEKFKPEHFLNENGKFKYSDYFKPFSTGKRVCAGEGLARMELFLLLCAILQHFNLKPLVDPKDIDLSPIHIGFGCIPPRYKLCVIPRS

CYP1A2 = biological target: T2, CYP1A2 (Homo sapiens, UniProt P05177); test: Inhibition of CYP1A2 in human liver microsomes at 10 uM using phenacetin as substrate preincubated for 5 mins followed by NADPH generating system addition and measured after 120 mins by LC-MS/MS analysis relative to control; format: ADME; conditions: probe phenacetin, time 125 min
T2 sequence (P05177 whole entry): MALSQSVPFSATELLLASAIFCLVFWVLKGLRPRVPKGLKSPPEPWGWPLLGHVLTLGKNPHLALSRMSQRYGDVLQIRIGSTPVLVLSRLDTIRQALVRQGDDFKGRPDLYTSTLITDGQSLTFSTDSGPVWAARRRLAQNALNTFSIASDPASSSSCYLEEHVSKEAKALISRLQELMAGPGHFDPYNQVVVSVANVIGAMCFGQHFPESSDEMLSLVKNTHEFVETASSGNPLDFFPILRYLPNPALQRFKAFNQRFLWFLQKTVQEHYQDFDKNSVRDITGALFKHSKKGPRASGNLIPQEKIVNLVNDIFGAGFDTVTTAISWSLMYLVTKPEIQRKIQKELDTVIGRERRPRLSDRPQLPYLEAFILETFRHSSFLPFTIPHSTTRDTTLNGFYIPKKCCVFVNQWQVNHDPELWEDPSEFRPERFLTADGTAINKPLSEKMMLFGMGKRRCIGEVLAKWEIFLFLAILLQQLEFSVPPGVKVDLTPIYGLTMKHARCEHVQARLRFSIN

[4] = Metabolic stability of compound in rat liver microsomes assessed as elimination half-life at 0.2 uM in presence of NADPH by LC-MS/MS analysis; format: ADME, Microsome; conditions: read-out: beta t1/2
[5] = Cmax in male Sprague-Dawley rat at 10 mg/kg, iv administered as single dose by LC-MS analysis; format: ADME, organism-based; set-up: route intravenous, dose 10 mg/kg; conditions: in vivo
[6] = Antagonist activity at P2Y1 in rabbit platelet-rich plasma assessed as inhibition of ADP-induced increase in intracellular Ca2+ concentration preincubated for 5 mins followed by ADP addition and measured for 3 mins by fluo4 dye-based fluorescence assay; format: cell-free; conditions: Oryctolagus cuniculus
[7] = Elimination half-life in male Sprague-Dawley rat at 10 mg/kg, po administered as single dose by LC-MS analysis; format: ADME, organism-based; conditions: in vivo, read-out: beta t1/2 (converted)
[8] = AUC (0 to infinity) in male Sprague-Dawley rat at 10 mg/kg, po administered as single dose by LC-MS analysis; format: ADME, organism-based; set-up: route oral, time infinity, dose 10 mg/kg; conditions: in vivo
[9] = Metabolic stability of compound in human liver microsomes assessed as elimination half-life at 0.2 uM in presence of NADPH by LC-MS/MS analysis; format: ADME, Microsome; conditions: read-out: beta t1/2
CYP3A4 = CYP3A4 (Homo sapiens, UniProt P08684); test: Inhibition of CYP3A4 in human liver microsomes at 10 uM using testosterone as substrate preincubated for 5 mins followed by NADPH generating system addition and measured after 120 mins by LC-MS/MS analysis relative to control; format: ADME; conditions: probe testosterone, time 125 min
Sequence of CYP3A4 (P08684 whole entry): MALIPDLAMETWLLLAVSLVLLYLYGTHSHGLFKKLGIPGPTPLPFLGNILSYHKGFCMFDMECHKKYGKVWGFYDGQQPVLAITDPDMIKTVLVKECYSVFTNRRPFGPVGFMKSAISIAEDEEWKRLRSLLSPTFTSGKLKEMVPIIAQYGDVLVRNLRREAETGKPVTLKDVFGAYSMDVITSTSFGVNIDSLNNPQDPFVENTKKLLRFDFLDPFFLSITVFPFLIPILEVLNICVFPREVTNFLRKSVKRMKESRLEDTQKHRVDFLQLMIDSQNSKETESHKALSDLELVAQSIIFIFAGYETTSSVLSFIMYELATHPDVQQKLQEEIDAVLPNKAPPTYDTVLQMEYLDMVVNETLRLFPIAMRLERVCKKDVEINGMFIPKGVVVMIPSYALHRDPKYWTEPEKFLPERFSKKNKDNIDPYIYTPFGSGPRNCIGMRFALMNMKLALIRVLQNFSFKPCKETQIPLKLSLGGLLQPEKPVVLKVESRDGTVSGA

[10] = Stability of compound in simulated gastric fluid assessed as parent compound remaining at 10 uM after 12 hrs by HPLC analysis relative to control
CYP2D6 = CYP2D6 (Homo sapiens, UniProt P10635); test: Inhibition of CYP2D6 in human liver microsomes at 10 uM using dextromethorphan as substrate preincubated for 5 mins followed by NADPH generating system addition and measured after 120 mins by LC-MS/MS analysis relative to control; format: ADME; conditions: probe dextromethorphan, time 125 min
Sequence of CYP2D6 (P10635 whole entry): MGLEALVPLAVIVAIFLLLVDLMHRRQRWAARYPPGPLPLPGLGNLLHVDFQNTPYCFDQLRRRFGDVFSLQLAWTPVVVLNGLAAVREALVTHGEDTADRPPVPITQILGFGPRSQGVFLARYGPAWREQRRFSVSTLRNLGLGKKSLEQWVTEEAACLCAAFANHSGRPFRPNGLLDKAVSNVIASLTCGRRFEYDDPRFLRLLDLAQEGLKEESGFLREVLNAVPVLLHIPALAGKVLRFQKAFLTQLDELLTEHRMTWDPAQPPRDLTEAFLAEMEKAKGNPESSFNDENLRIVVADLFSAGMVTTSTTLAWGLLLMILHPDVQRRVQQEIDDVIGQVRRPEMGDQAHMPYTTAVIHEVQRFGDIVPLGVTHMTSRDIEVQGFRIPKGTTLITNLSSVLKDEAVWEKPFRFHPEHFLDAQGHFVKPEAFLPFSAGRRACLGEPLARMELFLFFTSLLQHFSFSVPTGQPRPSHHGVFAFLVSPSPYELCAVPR

CYP2C9 = CYP2C9 (Homo sapiens, UniProt P11712); test: Inhibition of CYP2C9 in human liver microsomes at 10 uM using tolbutamide as substrate preincubated for 5 mins followed by NADPH generating system addition and measured after 120 mins by LC-MS/MS analysis relative to control; format: ADME; conditions: probe tolbutamide, time 125 min
Sequence of CYP2C9 (P11712 whole entry): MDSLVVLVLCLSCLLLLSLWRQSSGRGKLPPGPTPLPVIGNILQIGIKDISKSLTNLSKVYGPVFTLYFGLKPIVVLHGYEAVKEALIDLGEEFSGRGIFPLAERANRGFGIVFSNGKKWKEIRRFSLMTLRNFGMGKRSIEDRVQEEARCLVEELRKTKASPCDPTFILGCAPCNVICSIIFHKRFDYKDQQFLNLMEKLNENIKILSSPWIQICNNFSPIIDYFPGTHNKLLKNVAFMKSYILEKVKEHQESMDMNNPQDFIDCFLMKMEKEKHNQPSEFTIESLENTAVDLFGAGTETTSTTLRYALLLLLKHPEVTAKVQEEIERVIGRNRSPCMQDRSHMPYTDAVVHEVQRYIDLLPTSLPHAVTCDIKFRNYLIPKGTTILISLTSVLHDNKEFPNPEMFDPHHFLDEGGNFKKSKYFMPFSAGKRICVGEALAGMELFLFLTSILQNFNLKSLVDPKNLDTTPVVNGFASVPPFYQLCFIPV

CYP2C19 = CYP2C19 (Homo sapiens, UniProt P33261); test: Inhibition of CYP2C19 in human liver microsomes at 10 uM using S-mephenytoin as substrate preincubated for 5 mins followed by NADPH generating system addition and measured after 120 mins by LC-MS/MS analysis relative to control; format: ADME; conditions: probe S-mephenytoin, time 125 min
Sequence of CYP2C19 (P33261 whole entry): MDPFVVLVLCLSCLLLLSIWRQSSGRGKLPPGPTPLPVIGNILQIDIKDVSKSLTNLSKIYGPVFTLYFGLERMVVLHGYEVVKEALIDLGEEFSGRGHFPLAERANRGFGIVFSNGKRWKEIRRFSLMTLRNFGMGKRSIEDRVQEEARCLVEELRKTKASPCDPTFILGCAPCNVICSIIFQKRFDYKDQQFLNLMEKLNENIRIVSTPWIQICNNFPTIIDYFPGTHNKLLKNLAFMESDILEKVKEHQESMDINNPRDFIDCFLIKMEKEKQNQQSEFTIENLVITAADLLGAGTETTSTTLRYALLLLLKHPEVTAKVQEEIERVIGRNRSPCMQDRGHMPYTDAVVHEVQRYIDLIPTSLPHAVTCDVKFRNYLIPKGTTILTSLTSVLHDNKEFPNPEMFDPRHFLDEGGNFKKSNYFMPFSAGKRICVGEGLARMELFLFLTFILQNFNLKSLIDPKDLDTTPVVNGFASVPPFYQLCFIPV

[11] = Stability of compound in simulated intestinal fluid assessed as parent compound remaining at 10 uM after 12 hrs by HPLC analysis relative to control
[12] = Apparent volume of distribution in male Sprague-Dawley rat at 10 mg/kg, po administered as single dose by LC-MS analysis; format: ADME, organism-based; conditions: in vivo
[13] = Acute toxicity in Kunming mouse assessed as behavioral abnormalities at 2000 mg/kg, ig administered as single dose monitored every day up to14 days; format: organism-based; conditions: in vivo, po, 336 h, time 14 day
[14] = Toxicity in Sprague-Dawley rat model of tail snip bleeding assessed as bleeding weight at 10 mg/kg, po administered via gavage as single dose measured within 2 hrs post tail snip(reference value: 0.08 g); format: organism-based; conditions: in vivo

| SMILES | Cmax [1] | CL/F [2] | IC50 (Plasma) | Tmax [3] | inhibition at 2 h, 10 µM (CYP2A6) | inhibition at 2 h, 10 µM (CYP2E1) | inhibition at 2 h, 10 µM (CYP1A2) | half-life at 0.2 µM [4] | half-life [7] | AUC(0-inf) [8] | half-life at 0.2 µM [9] | inhibition at 2 h, 10 µM (CYP3A4) | Stability [10] | inhibition at 2 h, 10 µM (CYP2D6) | inhibition at 2 h, 10 µM (CYP2C9) | inhibition at 2 h, 10 µM (CYP2C19) | Stability [11] | Vz [12] | other results |
| --- | --- | --- | --- | --- | --- | --- | --- | --- | --- | --- | --- | --- | --- | --- | --- | --- | --- | --- | --- |
| Cc1nc(-c2cccc(C#N)c2)n(OCc2ccc(C#N)cc2)c1C(=O)O | 214 ng/mL | 261 mL/min/kg | 3.88 µM | 0.167 h | 3.64% | 6.79% | 0.11% | > 2 h | 13.1 h | 809 ng·h/mL | > 2 h | 7.4% | 90% | 2.42% | 0.41% | 1.97% | 73% | 239.6 L/kg | Cmax [5]: 11200 ng/mL; IC50 [6]: 2.59 µM |
| CCOC(=O)c1c(C)nc(-c2cccc(C#N)c2)n1OCc1ccc(C#N)cc1 | 68 ng/mL | 207 mL/min/kg | 4.24 µM | 0.46 h | 7.69% | 8.68% | 3.85% | 0.385 h | 13.8 h | 1140 ng·h/mL | 2.01 h | 2.16% | 90% | 31.7% | 0.024% | 4.52% | 93% | 190.56 L/kg | Activity [13]: Non-Toxic; Activity [14]: 0.4 g |

Source: ChEMBL document CHEMBL4673353, “Switching a Xanthine Oxidase Inhibitor to a Dual-Target Antagonist of P2Y and P2Y as an Oral Antiplatelet Agent with a Wider Therapeutic Window in Rats than Ticagrelor” (J Med Chem, 2020)
